This series deals with zebrafish. The series can be described thus: Cardiotoxicity experiment using zebrafish (heart rate, lethality). Particulars: 10 uM, n = 10. It is filed as in vivo.

Regarding `COc1ccc(CCN2CCC(Nc3nc4ccccc4n3Cc3ccc(F)cc3)CC2)cc1` [Astemizole, reference compound], the Lethality is listed as 0/10. Also, the “Changes (%) in heart rate” value (mean) was found to be 46.2%.

Source of the values: patent publication US11464770B2, “Anticancer pharmaceutical composition” (NATIONAL CANCER CENTER, priority 2016, dated 2022).
